Columns and labels:
Assay type in all cases: in vivo
bulrush [1] = assay: Test Example 2: herbicidal effects during the vegetation period under submerged conditions; conditions: treatment during the vegetation period under submerged conditions; dose 2.52 g/a
Procedure, shortened: (§1)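 Barnyardgrass, bulrush and ducksalad were co-sown in alluvial soil flooded to 4 cm and grown in a greenhouse at 25 to 30° C. At the 1- or 2-leaf stage, water-diluted emulsifiable concentrates went onto the water surface at set doses (g/a). Herbicidal effect was scored three weeks later on a graded scale.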

barnyardgrass [2] = assay: as above; conditions: treatment during the vegetation period under submerged conditions; dose 2.52 g/a
Procedure, shortened: as §1

ducksalad [3] = assay: as above; conditions: treatment during the vegetation period under submerged conditions; dose 2.52 g/a
Procedure, shortened: as §1

beadstraw [4] = assay: Test Example 3: herbicidal effects in soil treatment; conditions: dose 3.2 g/a
Procedure, shortened: (§2)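 Seeds were sown in sterilized diluvial soil and covered with about 1.5 cm of soil. Compounds, formulated as emulsifiable concentrates and diluted with water, were sprayed evenly over the soil surface at set doses in g/a. Herbicidal effect was scored on a rating scale three weeks later.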

redroot pigweed [5] = assay: as above; conditions: dose 3.2 g/a
Procedure, shortened: as §2

wild oat [6] = assay: as above; conditions: dose 3.2 g/a
Procedure, shortened: as §2

velvetleaf [7] = assay: as above; conditions: dose 3.2 g/a
Procedure, shortened: as §2

common chickweed [8] = assay: as above; conditions: dose 3.2 g/a
Procedure, shortened: as §2

common lambsquater [9] = assay: as above; conditions: dose 3.2 g/a
Procedure, shortened: as §2

large crabgrass [10] = assay: as above; conditions: dose 3.2 g/a
Procedure, shortened: as §2

barnyardgrass [11] = assay: as above; conditions: dose 3.2 g/a
Procedure, shortened: as §2

water foxtail [12] = assay: as above; conditions: dose 3.2 g/a
Procedure, shortened: as §2

Italian ryegrass [13] = assay: as above; conditions: dose 3.2 g/a
Procedure, shortened: as §2

giant foxtail [14] = assay: as above; conditions: dose 3.2 g/a
Procedure, shortened: as §2

common ragweed [15] = assay: as above; conditions: dose 3.2 g/a
Procedure, shortened: as §2

posumbu knotweed [16] = assay: as above; conditions: dose 3.2 g/a
Procedure, shortened: as §2

beadstraw [17] = assay: Test Example 4: herbicidal effect in foliage treatment; conditions: dose 3.2 g/a, three weeks after application
Procedure, shortened: (§3)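 Post-emergence foliar spray of water-diluted emulsifiable concentrate at predetermined doses (g per are), applied to plants 14 days after sowing in sterile diluvial soil (greenhouse, 25 to 30° C). Visual scale rating of effect taken 3 weeks later.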

redroot pigweed [18] = assay: as above; conditions: dose 3.2 g/a
Procedure, shortened: as §3

velvetleaf [19] = assay: as above; conditions: dose 3.2 g/a
Procedure, shortened: as §3

common chickweed [20] = assay: as above; conditions: dose 3.2 g/a
Procedure, shortened: as §3

common lambsquater [21] = assay: as above; conditions: dose 3.2 g/a
Procedure, shortened: as §3

large crabgrass [22] = assay: as above; conditions: dose 3.2 g/a
Procedure, shortened: as §3

barnyardgrass [23] = assay: as above; conditions: dose 3.2 g/a
Procedure, shortened: as §3

water foxtail [24] = assay: as above; conditions: dose 3.2 g/a
Procedure, shortened: as §3

Italian ryegrass [25] = assay: as above; conditions: dose 3.2 g/a
Procedure, shortened: as §3

giant foxtail [26] = assay: as above; conditions: dose 3.2 g/a
Procedure, shortened: as §3

common ragweed [27] = assay: as above; conditions: dose 3.2 g/a
Procedure, shortened: as §3

posumbu knotweed [28] = assay: as above; conditions: dose 3.2 g/a
Procedure, shortened: as §3

bulrush [29] = assay: Test Example 1: herbicidal effects in preemergence treatment under submerged conditions; conditions: dose 2.52 g/a
Procedure, shortened: (§4)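 Submerged conditions, 4 cm water over alluvial soil. Weeds sown and 2.5-leaf rice transplanted; compound applied preemergence to water surface, doses in g per are. Greenhouse, 25 to 30° C., three weeks, then 0–5 mortality rating.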

barnyardgrass [30] = assay: as above; conditions: dose 2.52 g/a
Procedure, shortened: as §4

ducksalad [31] = assay: as above; conditions: dose 2.52 g/a
Procedure, shortened: as §4

transplanted rice = assay: Test Example 1: preemergence treatment under submerged conditions, effect on crop; conditions: dose 2.52 g/a
Procedure, shortened: as §4

wild oat [32] = assay: Test Example 4: herbicidal effect in foliage treatment; conditions: dose 3.2 g/a, three weeks after the application
Procedure, shortened: as §3

[33] = three weeks after the application

SMILES: CCC(=O)N(c1ccccc1CN1COC2(CCCC2)CC1=O)S(=O)(=O)C(F)(F)F [II-65]
- B: bulrush, herbicidal effect (evaluation scale 0-5) (bulrush [1]): 5 (mortality of 90% or above (nearly complete death))
- A: barnyardgrass, herbicidal effect (evaluation scale 0-5) (barnyardgrass [2]): 5 (mortality of 90% or above (nearly complete death))
- C: ducksalad, herbicidal effect (evaluation scale 0-5) (ducksalad [3]): 5 (mortality of 90% or above (nearly complete death))
- O: beadstraw, herbicidal effect (evaluation scale 0-5) (beadstraw [4]): 0 (mortality of less than 5% (almost ineffective))
- K: redroot pigweed, herbicidal effect (evaluation scale 0-5) (redroot pigweed [5]): 2 (mortality of at least 20% and less than 40%)
- F: wild oat, herbicidal effect (evaluation scale 0-5) (wild oat [6]): 0 (mortality of less than 5% (almost ineffective))
- I: velvetleaf, herbicidal effect (evaluation scale 0-5) (velvetleaf [7]): 3 (mortality of at least 40% and less than 70%)
- N: common chickweed, herbicidal effect (evaluation scale 0-5) (common chickweed [8]): 5 (mortality of 90% or above (nearly complete death))
- L: common lambsquater, herbicidal effect (evaluation scale 0-5) (common lambsquater [9]): 0 (mortality of less than 5% (almost ineffective))
- D: large crabgrass, herbicidal effect (evaluation scale 0-5) (large crabgrass [10]): 5 (mortality of 90% or above (nearly complete death))
- A: barnyardgrass, herbicidal effect (evaluation scale 0-5) (barnyardgrass [11]): 5 (mortality of 90% or above (nearly complete death))
- G: water foxtail, herbicidal effect (evaluation scale 0-5) (water foxtail [12]): 5 (mortality of 90% or above (nearly complete death))
- H: Italian ryegrass, herbicidal effect (evaluation scale 0-5) (Italian ryegrass [13]): 5 (mortality of 90% or above (nearly complete death))
- E: giant foxtail, herbicidal effect (evaluation scale 0-5) (giant foxtail [14]): 5 (mortality of 90% or above (nearly complete death))
- J: common ragweed, herbicidal effect (evaluation scale 0-5) (common ragweed [15]): 4 (mortality of at least 70% and less than 90%)
- M: posumbu knotweed, herbicidal effect (evaluation scale 0-5) (posumbu knotweed [16]): 4 (mortality of at least 70% and less than 90%)
- O: beadstraw, herbicidal effect (beadstraw [17]): 0 (mortality of less than 5% (almost ineffective))
- K: redroot pigweed, herbicidal effect (redroot pigweed [18]; three weeks after application): 0 (mortality of less than 5% (almost ineffective))
- I: velvetleaf, herbicidal effect (velvetleaf [19]; three weeks after application): 3 (mortality of at least 40% and less than 70%)
- N: common chickweed, herbicidal effect (common chickweed [20]; three weeks after application): 5 (mortality of 90% or above (nearly complete death))
- L: common lambsquater, herbicidal effect (common lambsquater [21]; three weeks after application): 2 (mortality of at least 20% and less than 40%)
- D: large crabgrass, herbicidal effect (large crabgrass [22]; three weeks after application): 3 (mortality of at least 40% and less than 70%)
- A: barnyardgrass, herbicidal effect (barnyardgrass [23]; three weeks after application): 3 (mortality of at least 40% and less than 70%)
- G: water foxtail, herbicidal effect (water foxtail [24]; three weeks after application): 5 (mortality of 90% or above (nearly complete death))
- H: Italian ryegrass, herbicidal effect (Italian ryegrass [25]; three weeks after application): 3 (mortality of at least 40% and less than 70%)
- E: giant foxtail, herbicidal effect (giant foxtail [26]; three weeks after application): 4 (mortality of at least 70% and less than 90%)
- J: common ragweed, herbicidal effect (common ragweed [27]; three weeks after application): 3 (mortality of at least 40% and less than 70%)
- M: posumbu knotweed, herbicidal effect (posumbu knotweed [28]; three weeks after application): 3 (mortality of at least 40% and less than 70%)
- B: bulrush, herbicidal effect (evaluation scale 0-5) (bulrush [29]): 5 (mortality of 90% or above (nearly complete death))
- A: barnyardgrass, herbicidal effect (evaluation scale 0-5) (barnyardgrass [30]): 5 (mortality of 90% or above (nearly complete death))
- C: ducksalad, herbicidal effect (evaluation scale 0-5) (ducksalad [31]): 5 (mortality of 90% or above (nearly complete death))
- a: transplanted rice, effect on crop (evaluation scale 0-5) (transplanted rice): 0 (mortality of less than 5% (almost ineffective))

SMILES: CC1OC(C)(C)CC(=O)N1Cc1ccccc1NS(=O)(=O)C(F)(F)F (stereo not shown) [II-72]
- B: bulrush, herbicidal effect (evaluation scale 0-5) (bulrush [1]): 5 (mortality of 90% or above (nearly complete death))
- A: barnyardgrass, herbicidal effect (evaluation scale 0-5) (barnyardgrass [2]): 5 (mortality of 90% or above (nearly complete death))
- C: ducksalad, herbicidal effect (evaluation scale 0-5) (ducksalad [3]): 5 (mortality of 90% or above (nearly complete death))
- O: beadstraw, herbicidal effect (evaluation scale 0-5) (beadstraw [4]): 4 (mortality of at least 70% and less than 90%)
- K: redroot pigweed, herbicidal effect (evaluation scale 0-5) (redroot pigweed [5]): 3 (mortality of at least 40% and less than 70%)
- N: common chickweed, herbicidal effect (evaluation scale 0-5) (common chickweed [8]): 4 (mortality of at least 70% and less than 90%)
- L: common lambsquater, herbicidal effect (evaluation scale 0-5) (common lambsquater [9]): 0 (mortality of less than 5% (almost ineffective))
- D: large crabgrass, herbicidal effect (evaluation scale 0-5) (large crabgrass [10]): 5 (mortality of 90% or above (nearly complete death))
- A: barnyardgrass, herbicidal effect (evaluation scale 0-5) (barnyardgrass [11]): 5 (mortality of 90% or above (nearly complete death))
- G: water foxtail, herbicidal effect (evaluation scale 0-5) (water foxtail [12]): 5 (mortality of 90% or above (nearly complete death))
- H: Italian ryegrass, herbicidal effect (evaluation scale 0-5) (Italian ryegrass [13]): 5 (mortality of 90% or above (nearly complete death))
- E: giant foxtail, herbicidal effect (evaluation scale 0-5) (giant foxtail [14]): 5 (mortality of 90% or above (nearly complete death))
- J: common ragweed, herbicidal effect (evaluation scale 0-5) (common ragweed [15]): 4 (mortality of at least 70% and less than 90%)
- K: redroot pigweed, herbicidal effect (redroot pigweed [18]; [33]): 2 (mortality of at least 20% and less than 40%)
- F: wild oat, herbicidal effect (wild oat [32]): 1 (mortality of at least 5% and less than 20%)
- I: velvetleaf, herbicidal effect (velvetleaf [19]; [33]): 5 (mortality of 90% or above (nearly complete death))
- N: common chickweed, herbicidal effect (common chickweed [20]; [33]): 3 (mortality of at least 40% and less than 70%)
- L: common lambsquater, herbicidal effect (common lambsquater [21]; [33]): 1 (mortality of at least 5% and less than 20%)
- D: large crabgrass, herbicidal effect (large crabgrass [22]; [33]): 4 (mortality of at least 70% and less than 90%)
- A: barnyardgrass, herbicidal effect (barnyardgrass [23]; [33]): 4 (mortality of at least 70% and less than 90%)
- G: water foxtail, herbicidal effect (water foxtail [24]; [33]): 5 (mortality of 90% or above (nearly complete death))
- H: Italian ryegrass, herbicidal effect (Italian ryegrass [25]; [33]): 5 (mortality of 90% or above (nearly complete death))
- E: giant foxtail, herbicidal effect (giant foxtail [26]; [33]): 4 (mortality of at least 70% and less than 90%)
- J: common ragweed, herbicidal effect (common ragweed [27]; [33]): 3 (mortality of at least 40% and less than 70%)
- M: posumbu knotweed, herbicidal effect (posumbu knotweed [28]; [33]): 3 (mortality of at least 40% and less than 70%)
- B: bulrush, herbicidal effect (evaluation scale 0-5) (bulrush [29]): 5 (mortality of 90% or above (nearly complete death))
- A: barnyardgrass, herbicidal effect (evaluation scale 0-5) (barnyardgrass [30]): 5 (mortality of 90% or above (nearly complete death))
- C: ducksalad, herbicidal effect (evaluation scale 0-5) (ducksalad [31]): 5 (mortality of 90% or above (nearly complete death))
- a: transplanted rice, effect on crop (evaluation scale 0-5) (transplanted rice): 3 (mortality of at least 40% and less than 70%)

SMILES: CCOC(=O)N(c1ccccc1CN1C(=O)C(Br)C(C)(C)OC1C)S(=O)(=O)C(F)(F)F (stereo not shown) [II-76]
- herbicidal effect, O: beadstraw (beadstraw [4]): 5 (mortality of 90% or above (nearly complete death))
- herbicidal effect, K: redroot pigweed (redroot pigweed [5]): 3 (mortality of at least 40% and less than 70%)
- herbicidal effect, F: wild oat (wild oat [6]): 0 (mortality of less than 5% (almost ineffective))
- herbicidal effect, I: velvetleaf (velvetleaf [7]): 3 (mortality of at least 40% and less than 70%)
- herbicidal effect, N: common chickweed (common chickweed [8]): 3 (mortality of at least 40% and less than 70%)
- herbicidal effect, L: common lambsquater (common lambsquater [9]): 3 (mortality of at least 40% and less than 70%)
- herbicidal effect, D: large crabgrass (large crabgrass [10]): 3 (mortality of at least 40% and less than 70%)
- herbicidal effect, A: barnyardgrass (barnyardgrass [11]): 3 (mortality of at least 40% and less than 70%)
- herbicidal effect, G: water foxtail (water foxtail [12]): 5 (mortality of 90% or above (nearly complete death))
- herbicidal effect, H: Italian ryegrass (Italian ryegrass [13]): 0 (mortality of less than 5% (almost ineffective))
- herbicidal effect, E: giant foxtail (giant foxtail [14]): 0 (mortality of less than 5% (almost ineffective))
- herbicidal effect, J: common ragweed (common ragweed [15]): 0 (mortality of less than 5% (almost ineffective))
